In the NIST ThermoML archive (doi:10.1021/je8009545):

Assay: xn = mol fraction of the nth substance listed
Conditions: Gas; for mass density: Gas pipette; for viscosity: Oscillating disk viscometry

COC [dimethyl ether] + N#N
Conditions | mass density [kg/m3] | viscosity [mPa·s]
298.15 K, 101 kPa, x1 = 0.256 | 1.178 | 0.01483
298.15 K, 101 kPa, x1 = 0.449 | 1.433 | 0.013
298.15 K, 101 kPa, x1 = 0.752 | 1.783 | 0.01063
298.15 K, 101 kPa, x1 = 1 | 1.91 | 0.00922
298.15 K, 262 kPa, x1 = 0.752 | 4.839 | 0.0106
298.15 K, 264 kPa, x1 = 0.449 | 4.075 | 0.013
298.15 K, 296 kPa, x1 = 1 | 6.081 | 0.00918
298.15 K, 305 kPa, x1 = 0.256 | 4.298 | 0.01488
298.15 K, 475 kPa, x1 = 1 | 10.06 | 0.0091
298.15 K, 614 kPa, x1 = 0.752 | 11.78 | 0.0106
298.15 K, 640 kPa, x1 = 0.449 | 9.965 | 0.01303
298.15 K, 683 kPa, x1 = 0.256 | 9.296 | 0.01494
323.15 K, 101 kPa, x1 = 0.228 | 1.08 | 0.01629
323.15 K, 101 kPa, x1 = 0.449 | 1.144 | 0.01402
323.15 K, 101 kPa, x1 = 0.698 | 1.303 | 0.012
323.15 K, 101 kPa, x1 = 1 | 1.652 | 0.00997
323.15 K, 270 kPa, x1 = 0.698 | 4.353 | 0.01201
323.15 K, 295 kPa, x1 = 1 | 5.561 | 0.00996
323.15 K, 321 kPa, x1 = 0.449 | 4.449 | 0.01406
323.15 K, 354 kPa, x1 = 0.228 | 4.544 | 0.01632
323.15 K, 485 kPa, x1 = 0.698 | 7.499 | 0.01201
323.15 K, 486 kPa, x1 = 0.449 | 6.864 | 0.01408
323.15 K, 490 kPa, x1 = 1 | 9.31 | 0.00993
323.15 K, 553 kPa, x1 = 0.228 | 6.768 | 0.01636
323.15 K, 695 kPa, x1 = 0.698 | 11.57 | 0.01206
323.15 K, 714 kPa, x1 = 0.449 | 10.2 | 0.01408
323.15 K, 736 kPa, x1 = 1 | 14.71 | 0.00995
323.15 K, 910 kPa, x1 = 0.228 | 11.15 | 0.01636
323.15 K, 946 kPa, x1 = 0.698 | 15.73 | 0.01208
323.15 K, 976 kPa, x1 = 1 | 22.53 | 0.00994
323.15 K, 990 kPa, x1 = 0.449 | 13.89 | 0.01413
348.15 K, 101 kPa, x1 = 0.313 | 1.11 | 0.01638
348.15 K, 101 kPa, x1 = 0.491 | 1.237 | 0.01463
348.15 K, 101 kPa, x1 = 0.661 | 1.332 | 0.01319
348.15 K, 101 kPa, x1 = 1 | 1.332 | 0.01081
348.15 K, 294 kPa, x1 = 0.313 | 3.552 | 0.01639
348.15 K, 305 kPa, x1 = 1 | 5.17 | 0.01081
348.15 K, 306 kPa, x1 = 0.661 | 4.345 | 0.01319
348.15 K, 325 kPa, x1 = 0.491 | 4.155 | 0.01468
348.15 K, 519 kPa, x1 = 0.661 | 7.453 | 0.01321
348.15 K, 520 kPa, x1 = 0.313 | 6.153 | 0.01644
348.15 K, 525 kPa, x1 = 0.491 | 6.977 | 0.01471
348.15 K, 551 kPa, x1 = 1 | 9.705 | 0.01082
348.15 K, 992 kPa, x1 = 0.661 | 14.43 | 0.01327
348.15 K, 998 kPa, x1 = 0.313 | 11.96 | 0.0165
348.15 K, 1006 kPa, x1 = 1 | 19.03 | 0.01085
348.15 K, 1021 kPa, x1 = 0.491 | 13.54 | 0.01476
348.15 K, 1561 kPa, x1 = 1 | 35.81 | 0.01094
348.15 K, 1850 kPa, x1 = 1 | 44.66 | 0.01106
348.15 K, 1909 kPa, x1 = 0.491 | 26.07 | 0.01499
348.15 K, 2053 kPa, x1 = 0.661 | 33.49 | 0.01353
348.15 K, 2095 kPa, x1 = 0.313 | 25.47 | 0.01672
373.15 K, 101 kPa, x1 = 0.281 | 0.665 | 0.01773
373.15 K, 101 kPa, x1 = 0.522 | 0.95 | 0.01534
373.15 K, 101 kPa, x1 = 0.82 | 1.171 | 0.01282
373.15 K, 101 kPa, x1 = 1 | 1.235 | 0.01161
373.15 K, 301 kPa, x1 = 0.522 | 3.577 | 0.01535
373.15 K, 305 kPa, x1 = 1 | 4.748 | 0.0116
373.15 K, 312 kPa, x1 = 0.82 | 4.4 | 0.01285
373.15 K, 325 kPa, x1 = 0.281 | 3.419 | 0.01777
373.15 K, 500 kPa, x1 = 1 | 7.787 | 0.01162
373.15 K, 516 kPa, x1 = 0.82 | 7.217 | 0.01285
373.15 K, 520 kPa, x1 = 0.281 | 5.508 | 0.01777
373.15 K, 530 kPa, x1 = 0.522 | 6.584 | 0.01539
373.15 K, 1011 kPa, x1 = 0.281 | 10.64 | 0.01784
373.15 K, 1028 kPa, x1 = 1 | 16.71 | 0.01168
373.15 K, 1029 kPa, x1 = 0.522 | 12.76 | 0.0155
373.15 K, 1038 kPa, x1 = 0.82 | 15.16 | 0.01295
373.15 K, 1915 kPa, x1 = 0.281 | 20.8 | 0.01801
373.15 K, 1940 kPa, x1 = 1 | 35.33 | 0.01191
373.15 K, 1952 kPa, x1 = 0.82 | 30.93 | 0.01314
373.15 K, 2036 kPa, x1 = 0.522 | 25.83 | 0.01568
